Biological target: T1, FGFR3 K650M (Homo sapiens, UniProt P22607, K650M)
T1 construct: purchased Thermo Fisher Scientific (Life Technologies) SelectScreen
Assay: SelectScreen LanthaScreen
Type: binding
Conditions: read-out: % displacement
Method in brief: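 NU5455 was profiled across the SelectScreen Broad panel of kinase activity and binding assays. Z'LYTE reactions such as CSF1R ran at apparent Km ATP, while the Adapta CAMK1 assay used ATP listed as 10. Values are given as percent.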

T1 sequence (P22607 23-806 K650M): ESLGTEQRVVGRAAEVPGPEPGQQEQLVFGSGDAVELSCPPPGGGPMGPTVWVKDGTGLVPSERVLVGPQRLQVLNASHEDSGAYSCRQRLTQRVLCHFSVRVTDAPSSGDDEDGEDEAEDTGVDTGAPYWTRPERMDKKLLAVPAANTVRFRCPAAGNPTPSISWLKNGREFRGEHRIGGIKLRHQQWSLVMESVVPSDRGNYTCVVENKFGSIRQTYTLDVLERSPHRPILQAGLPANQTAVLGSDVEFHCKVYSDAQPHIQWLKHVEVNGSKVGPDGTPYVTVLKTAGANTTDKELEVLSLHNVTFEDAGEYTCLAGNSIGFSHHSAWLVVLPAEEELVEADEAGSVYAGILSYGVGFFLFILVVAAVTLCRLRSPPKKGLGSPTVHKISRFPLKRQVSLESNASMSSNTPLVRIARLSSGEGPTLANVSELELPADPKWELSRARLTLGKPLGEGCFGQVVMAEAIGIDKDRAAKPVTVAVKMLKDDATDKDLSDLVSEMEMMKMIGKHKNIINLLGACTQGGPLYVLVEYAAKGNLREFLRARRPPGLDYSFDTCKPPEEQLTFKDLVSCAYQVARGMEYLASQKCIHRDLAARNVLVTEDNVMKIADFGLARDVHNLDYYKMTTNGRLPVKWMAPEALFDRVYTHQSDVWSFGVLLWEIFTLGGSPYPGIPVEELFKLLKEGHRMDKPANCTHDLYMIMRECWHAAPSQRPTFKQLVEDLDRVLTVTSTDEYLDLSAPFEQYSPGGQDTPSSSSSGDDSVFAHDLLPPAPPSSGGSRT

CN(C(=O)CN1CCOCC1)c1ccc2sc3c(-c4cccc5c(=O)cc(N6CC7CCC(C6)O7)oc45)cccc3c2c1 [NU5455]
inhibition at 1 µM: 16.5%
